These are literature values, as cited in patent US6479541B1, “Amiodarone-containing parenteral administration” (Baxter International, priority 2000, dated 2002).

The conditions of this data set: dogs, intravenous; literature Gough et al. 1982.

In the case of polysorbate 80 [Tween 80], the cardiodepression / hypotension entry is recorded as “associated with cardiodepression, causing hypotension”.
